Experimental data as given in patent US20240197733A1, “A GABA RECEPTOR MODULATOR FOR USE IN THE TREATMENT OF PAIN” (SANIONA A/S, priority 2021, published 2024).

Tests used:
Format in all cases: in vivo, Sprague-Dawley rats
[1] = test system: electrocutaneous stimulation-induced facial pain rodent model; experiment: ES-induced facial pain model, cold thermal allodynia (acetone test), acute treatment; details: 30 mg/kg po, 2 and 4 hrs post dose, p<0.001 and p<0.0001 vs vehicle
Description: (§1) The electrocutaneous stimulation-induced facial pain rodent model is a reproducible orofacial pain model in which depilated cheek area of rats are repeatedly subjected to electrical stimulation. Repeated electrical stimulation at low intensities produces craniofacial pain that mimics the behavioral characteristics of TN such as development of mechanical and thermal allodynia at cheeks despite no visible edema, swelling or excessive injury and tissue damage.
(§2) Male wild type, Sprague-Dawley rats (Charles River Laboratories) born in-house at AfaSci Research Laboratory between May 24, 2020 to May 28, 2020. At approximately 3 months of age (approximately 350 g-450 g body weight) the rats were deemed suitable for the electrocutaneous stimulation-induced facial pain model. Prior to the experiment, the rats were maintained in group cages (3 rats per cage) in a controlled environment (temperature: 21.5±4.5° C./relative humidity: 35-55%) under a standard 12 h light/12 h dark lighting cycle (lights on at 06:00).
The required quantity of the compounds are weighed and dissolved in 100% DMSO in a volume amounting to 5% of the total volume while placed on a stirrer. The weight of the compounds refers to the free base weights. […]
(§3) Second baseline measurement was carried out similarly to day 1. […] For each animal, the average of the two baseline nociceptive measurements were calculated within each pain modality (mechanical, heat- and cold pain), and used as baseline (“Baseline” point on figures).
Similarly, to day 1- and 2, all rats were subjected to acclimatization to test equipment and decapicone followed by measurements of ES-induced facial mechanical- heat- and cold allodynia (“0” time point on figures). […] Compound 1, vehicle and Carbamazepine was administered perorally in doses of 1, 3, and 10 mg/kg (Compound 1) or 30 mg/kg (carbamazepine) and drug effects on pain thresholds were evaluated 2- and 4 hours after drug administration by assessment of mechanical- (von Frey) and thermal hypersensitivity (heat- and cold stimulation respectively). […]

[2] = test system: electrocutaneous stimulation-induced facial pain rodent model; experiment: ES-induced facial pain model, hot thermal hyperalgesia (lamp test, selective C fiber testing), acute treatment; details: 30 mg/kg po, post 4 hours of dose, p<0.0001
Description: as §1, §2
(§4) The required quantity of the compounds are weighed and dissolved in 100% DMSO in a volume amounting to 5% of the total volume while placed on a stirrer. The weight of the compounds refers to the free base weights. Once the solution becomes clear/transparent, the remaining volume of the vehicle is added (30% HPBCD prepared in MQ water) to final concentrations of 0.1, 0.3, and 1 mg/ml for Compound 1 and 3 mg/ml of Carbamazepine. The solutions are kept on a stirrer before- and during administration of the compounds to the animals.
(§5) The experimenter assessing the behavioral responses to drug administration is blinded to the drug treatment to the animals. Each treatment group is coded according the scheme below: • A. Vehicle (5% DMSO+30% HPBCD): 10 ml/kg • B. Compound 1: 1 mg/kg • C. Compound 1: 3 mg/kg • D. Compound 1: 10 mg/kg • F. Carbamazepine: 30 mg/kg
Second baseline measurement was carried out similarly to day 1. Immediately following the second baseline recording, each rat received 1 hr of electrocutaneous stimulation at cheek (0.4 mA intensity, 10 ms duration, 1 s inter-pulse interval). For each animal, the average of the two baseline nociceptive measurements were calculated within each pain modality (mechanical, heat- and cold pain), and used as baseline (“Baseline” point on figures).
Similarly, to day 1- and 2, all rats were subjected to acclimatization to test equipment and decapicone followed by measurements of ES-induced facial mechanical- heat- and cold allodynia (“0” time point on figures). Based on the individual rat's mechanical- and thermal hypersensitivity, 40 rats were selected for drug testing. Compound 1, vehicle and Carbamazepine was administered perorally in doses of 1, 3, and 10 mg/kg (Compound 1) or 30 mg/kg (carbamazepine) and drug effects on pain thresholds were evaluated 2- and 4 hours after drug administration by assessment of mechanical- (von Frey) and thermal hypersensitivity (heat- and cold stimulation respectively).
(§6) Decrease in ES-induced pain threshold was evaluated 22 hours following electrical stimulation of the depilated left cheek area (between the eye and ear ridge, this is a receptive field of trigeminal nerve) of each rat and was manifested as facial withdrawal following application of Von Frey filaments for mechanical allodynia and a heat lamp and acetone test for thermal hyperalgesia and allodynia respectively. Baseline pain behaviors were measured similarly to ES-induced facial pain measurements, except that rats were not subjected to ES stimulation.
Immediately following assessment of mechanical pain threshold, thermal (hot- and cold induced) pain was determined. […]

[3] = test system: electrocutaneous stimulation-induced facial pain rodent model; experiment: ES-induced facial pain model, mechanical allodynia (Von Frey filaments), acute treatment; details: 30 mg/kg po, acute, 2 and 4 hours post dosing; p<0.001, p<0.0001 vs vehicle
Description: as §1, §2, §4, §5, §3
Similarly, to day 1- and 2, all rats were subjected to acclimatization to test equipment and decapicone followed by measurements of ES-induced facial mechanical- heat- and cold allodynia (“0” time point on figures). […] Compound 1, vehicle and Carbamazepine was administered perorally in doses of 1, 3, and 10 mg/kg (Compound 1) or 30 mg/kg (carbamazepine) and drug effects on pain thresholds were evaluated 2- and 4 hours after drug administration by assessment of mechanical- (von Frey) and thermal hypersensitivity (heat- and cold stimulation respectively).
as §6
Mechanical pain thresholds were assessed by measuring each rat's facial withdrawal threshold (g) in response to von Frey monofilaments (BioSeb). […]

With `NC(=O)N1c2ccccc2C=Cc2ccccc21` [Carbamazepine, reference compound] the “effect on cold pain threshold (acetone test, facial withdrawal latency) vs vehicle” value [1] was “significant enhancement of the cold pain threshold”, the “effect on heat thermal hyperalgesia (facial withdrawal latency) vs vehicle” value [2] was “full reversal of heat hyperalgesia” and the “effect on mechanical allodynia (mechanical pain threshold, Von Frey) vs vehicle” value [3] was “significant analgesic effects”.
